Series [1] can be described thus: Aqueous solubility. The series is classed as physicochemical. As to conditions: aqueous medium at pH 7.4, pH 7.4, aqueous buffer.
Series [2] in a line: Distribution coefficient 1‐octanol / aqueous phosphate buffer. The series is classed as physicochemical. The conditions noted are these: pH 7.4.

Structures are written as SMILES. In brackets after ≈: the same amount, converted by molar mass.

Usually solubility stands for how much of the substance goes into solution per volume. A low value points to little dissolved substance. `O=C(NCc1cccc(CNC(=O)c2cc3ccccc3o2)c1)c1cc2ccccc2o1` [compound 28] returned a solubility in series [1] of 3 µM (≈ 1.27 µg/mL). Broadly, the logD is lipophilicity at a set pH, counting ionised and neutral species. A lower logD goes with lower lipophilicity. For the compound `c1cc(CNCc2cc3ccccc3o2)cc(CNCc2cc3ccccc3o2)c1` [compound 29], in series [2], the logD was found to be 4.6. The same compound showed a solubility in series [1] of 28 µM (≈ 11.1 µg/mL).

The values are drawn from paper PMC9826068 (Chemistry (Weinheim an Der Bergstrasse, Germany), 2022).
